Source: PubChem BioAssay AID1963972 (Molecular Pharmacology Branch, DTP, NCI, 2024)

Test system: 945468-187-T-J2-PDC spheroids viability
Experiment: Anticancer human tumor 945468-187-T-J2-PDC patient-derived rectal carcinoma cell line growth inhibition [PI3K]
Details: spheroids with HUVEC and MSC; for IC50: curve of first compound; for viability, T/C: stronger effect = lower value
Procedure, shortened: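 We assembled tumor spheroids that included a stromal compartment of HUVEC and MSCs, then exposed them to targeted agents alone and together with PI3K pathway inhibitors. Concentration series descended by half-log from clinically achievable Cmax levels. Viability served as the endpoint.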
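Further: spheroids exposed to compounds for seven days before reading.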

With `CC1(C)CCC(Nc2ncc(C(F)(F)F)c(-c3c[nH]c4c(P(C)(C)=O)c(C#N)ccc34)n2)CN1` (centres undefined) + CC(Nc1ncnc2nc[nH]c12)c1cc2cccc(Cl)c2c(=O)n1-c1ccccc1 the IC50 (second compound 0.0316 µM) was 0.667 µM, the IC50 (second compound 0.1 µM) was 0.605 µM and the IC50 (second compound 0.316 µM) was 0.736 µM. It also gave an IC50 (second compound 1 µM) of 0.685 µM, an IC50 (second compound 3.16 µM) of 0.665 µM and an IC50 (second compound 10 µM) of 0.548 µM. For the same compound, the viability, T/C (second compound 0.0316 µM, first compound 0.0316 µM) was 91.5%, the viability, T/C (second compound 0.0316 µM, first compound 0.1 µM) was 95.5% and the viability, T/C (second compound 0.0316 µM, first compound 0.316 µM) was 77.8%. The viability, T/C (second compound 0.0316 µM, first compound 1 µM) was 35%, the viability, T/C (second compound 0.0316 µM, first compound 3.16 µM) was 30.3% and the viability, T/C (second compound 0.0316 µM, first compound 10 µM) was 29.3%. For the same compound, the viability, T/C (second compound 0.1 µM, first compound 0.0316 µM) was 95.6%, the viability, T/C (second compound 0.1 µM, first compound 0.1 µM) was 92.4% and the viability, T/C (second compound 0.1 µM, first compound 0.316 µM) was 66.3%. For the same compound, the viability, T/C (second compound 0.1 µM, first compound 1 µM) was 37.2%, the viability, T/C (second compound 0.1 µM, first compound 3.16 µM) was 33.9% and the viability, T/C (second compound 0.1 µM, first compound 10 µM) was 30.5%. For the same compound, the viability, T/C (second compound 0.316 µM, first compound 0.0316 µM) was 89.7%, the viability, T/C (second compound 0.316 µM, first compound 0.1 µM) was 86.9% and the viability, T/C (second compound 0.316 µM, first compound 0.316 µM) was 63.7%. For the same compound, the viability, T/C (second compound 0.316 µM, first compound 1 µM) was 44.8%, the viability, T/C (second compound 0.316 µM, first compound 3.16 µM) was 35.1% and the viability, T/C (second compound 0.316 µM, first compound 10 µM) was 28.1%. The viability, T/C (second compound 1 µM, first compound 0.0316 µM) was 104%, the viability, T/C (second compound 1 µM, first compound 0.1 µM) was 81.5% and the viability, T/C (second compound 1 µM, first compound 0.316 µM) was 56.9%. It also gave a viability, T/C (second compound 1 µM, first compound 1 µM) of 40.7%, a viability, T/C (second compound 1 µM, first compound 3.16 µM) of 46.3% and a viability, T/C (second compound 1 µM, first compound 10 µM) of 25.6%. It also gave a viability, T/C (second compound 3.16 µM, first compound 0.0316 µM) of 92.4%, a viability, T/C (second compound 3.16 µM, first compound 0.1 µM) of 82.4% and a viability, T/C (second compound 3.16 µM, first compound 0.316 µM) of 69.2%. The viability, T/C (second compound 3.16 µM, first compound 1 µM) was 38.5%, the viability, T/C (second compound 3.16 µM, first compound 3.16 µM) was 34.9% and the viability, T/C (second compound 3.16 µM, first compound 10 µM) was 32.4%. The viability, T/C (second compound 10 µM, first compound 0.0316 µM) was 125%, the viability, T/C (second compound 10 µM, first compound 0.1 µM) was 76.3% and the viability, T/C (second compound 10 µM, first compound 0.316 µM) was 60.4%. The viability, T/C (second compound 10 µM, first compound 1 µM) was 42.8%, the viability, T/C (second compound 10 µM, first compound 3.16 µM) was 39% and the viability, T/C (second compound 10 µM, first compound 10 µM) was 21.5%.

`Cn1cnc2c(F)c(Nc3ccc(Br)cc3Cl)c(C(=O)NOCCO)cc21` + COc1c(OCCCN2CCOCC2)ccc2c3n(c(=NC(=O)c4cnc(N)nc4)nc12)CCN3 was tested, and the IC50 (second compound 0.00316 µM) was > 3 µM, the IC50 (second compound 0.01 µM) was > 3 µM and the IC50 (second compound 0.0316 µM) was 2.95 µM. For the same compound, the IC50 (second compound 0.1 µM) was 0.657 µM, the IC50 (second compound 0.316 µM) was < 0.00949 µM and the IC50 (second compound 1 µM) was < 0.00949 µM. For the same compound, the viability, T/C (second compound 0.00316 µM, first compound 0.00949 µM) was 99.9%, the viability, T/C (second compound 0.00316 µM, first compound 0.03 µM) was 129% and the viability, T/C (second compound 0.00316 µM, first compound 0.0949 µM) was 109%. For the same compound, the viability, T/C (second compound 0.00316 µM, first compound 0.3 µM) was 94.6%, the viability, T/C (second compound 0.00316 µM, first compound 0.949 µM) was 85.4% and the viability, T/C (second compound 0.00316 µM, first compound 3 µM) was 81.5%. For the same compound, the viability, T/C (second compound 0.01 µM, first compound 0.00949 µM) was 125%, the viability, T/C (second compound 0.01 µM, first compound 0.03 µM) was 146% and the viability, T/C (second compound 0.01 µM, first compound 0.0949 µM) was 109%. It also gave a viability, T/C (second compound 0.01 µM, first compound 0.3 µM) of 94.1%, a viability, T/C (second compound 0.01 µM, first compound 0.949 µM) of 92.5% and a viability, T/C (second compound 0.01 µM, first compound 3 µM) of 67.5%. For the same compound, the viability, T/C (second compound 0.0316 µM, first compound 0.00949 µM) was 95%, the viability, T/C (second compound 0.0316 µM, first compound 0.03 µM) was 111% and the viability, T/C (second compound 0.0316 µM, first compound 0.0949 µM) was 85.4%. The viability, T/C (second compound 0.0316 µM, first compound 0.3 µM) was 98.6%, the viability, T/C (second compound 0.0316 µM, first compound 0.949 µM) was 71.9% and the viability, T/C (second compound 0.0316 µM, first compound 3 µM) was 49.6%. It also gave a viability, T/C (second compound 0.1 µM, first compound 0.00949 µM) of 102%, a viability, T/C (second compound 0.1 µM, first compound 0.03 µM) of 94.9% and a viability, T/C (second compound 0.1 µM, first compound 0.0949 µM) of 88.8%. For the same compound, the viability, T/C (second compound 0.1 µM, first compound 0.3 µM) was 74.1%, the viability, T/C (second compound 0.1 µM, first compound 0.949 µM) was 38.3% and the viability, T/C (second compound 0.1 µM, first compound 3 µM) was 17.7%. The viability, T/C (second compound 0.316 µM, first compound 0.00949 µM) was 39.9%, the viability, T/C (second compound 0.316 µM, first compound 0.03 µM) was 40% and the viability, T/C (second compound 0.316 µM, first compound 0.0949 µM) was 34.1%. It also gave a viability, T/C (second compound 0.316 µM, first compound 0.3 µM) of 21.9%, a viability, T/C (second compound 0.316 µM, first compound 0.949 µM) of 16.3% and a viability, T/C (second compound 0.316 µM, first compound 3 µM) of 6.67%. The viability, T/C (second compound 1 µM, first compound 0.00949 µM) was 20%, the viability, T/C (second compound 1 µM, first compound 0.03 µM) was 18.6% and the viability, T/C (second compound 1 µM, first compound 0.0949 µM) was 18.1%. For the same compound, the viability, T/C (second compound 1 µM, first compound 0.3 µM) was 11.3%, the viability, T/C (second compound 1 µM, first compound 0.949 µM) was 10.4% and the viability, T/C (second compound 1 µM, first compound 3 µM) was 5.87%.
